Measurements as given in EP0596725A2, “Drug resistance-conferring protein, antibodies reactive therewith and utilities thereof” (ELI LILLY AND COMPANY, priority 1992, dated 1994).
≈ marks a conversion by molar mass, not a printed value.

Assays:
HL60/S cells = assay: IC50 of cells treated with drug (drug sensitivity); assay type: cell-based; settings: Homo sapiens, HL-60, do not express P-glycoprotein, read-out: IC₅₀
HL60/Adr cells = assay: IC50 of cells treated with drug (drug sensitivity); assay type: cell-based; settings: Homo sapiens; HL60/Adr cells (resistant to doxorubicin); express P190, no P-glycoprotein; read-out: IC₅₀

| IC50 (HL60/S cells) [µg/mL] | IC50 (HL60/Adr cells) [µg/mL] | SMILES |
| --- | --- | --- |
| 0.011 (≈ 0.0202 µM) | 2.2 (≈ 4.05 µM) | COc1cccc2c1C(=O)c1c(O)c3c(c(O)c1C2=O)C[C@@](O)(C(=O)CO)C[C@@H]3O[C@H]1C[C@H](N)[C@H](O)[C@H](C)O1 [Adriamycin, Doxorubicin] |
| 0.39 (≈ 0.663 µM) | > 10 | COc1cc([C@@H]2c3cc4c(cc3[C@@H](O[C@@H]3O[C@@H]5CO[C@@H](C)O[C@H]5[C@H](O)[C@H]3O)[C@H]3COC(=O)[C@H]23)OCO4)cc(OC)c1O [Etoposide] |
